This note sets out measurements from patent US20240148821A1, “PHARMACEUTICAL USE OF CYCLIC PEPTIDE COMPOUND” (CHUGAI SEIYAKU KABUSHIKI KAISHA, priority 2021, published 2024).

The target of experiment [1] is protein-protein interaction between Kras and SOS1 (biotin-tagged human Kras loaded with GDP, His-tagged human SOS1) (Homo sapiens (Human), UniProt P01116, G12D). The experiment can be described thus: Protein-protein interaction inhibition between Kras and SOS1 (KrasG12D-SOS PPI) using AlphaScreen.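 Further: kras produced in E. coli, Ni-coupled donor beads and streptavidin acceptor beads, excitation 680 nm with emission detected at 520–620 nm via singlet oxygen transfer.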 The class given is biochemical. The following applies: AlphaScreen; biotin-tagged human Kras loaded with GDP, His-tagged human SOS1; read-out: KRAS G12D-SOS PPI IC50. (In general: In Alpha technology, singlet oxygen from a donor bead excites a nearby acceptor bead.)

In experiment [2] the test system is Human pancreatic cancer cell line AsPC-1 (G12D mutation Kras). Put plainly: AsPC-1 cell growth inhibition (AsPC-1 CGI). The experiment is classed as cell-based. The following applies: read-out: AsPC-1 cell growth inhibition, 50% growth inhibitory concentration (IC50 value); 96 hours, CellTiter-Glo, values classified in ranges. (ATP-based viability assays read luminescence as a measure of living cells.)
Experimental: Test compounds were serially dilated with dimethyl sulfoxide, and 200 nL was then dispensed to a U-bottom 96-well plate using Labcyte Echo. […] The cell suspension was dispensed to a. plate containing a test compound at 100 μL per well and incubated at 37° C. in a 5% carbon dioxide gas incubator. 96 hours later, 80 μL of CellTiter-Glo (Promega) was added to each well and fluorescence was measured.

Each structure is given as a SMILES string. Bridge positions count the residues as written; N and C are the ends. Square brackets hold non-standard residues; d marks the D form. Peptide text beside a SMILES is read from it. * marks the point of attachment. hPhe(3-Cl-4-CF3) = N[C@@H](CCc1ccc(C(F)(F)F)c(Cl)c1)C(=O)O; NMePhe(4-F) = CN[C@@H](Cc1ccc(F)cc1)C(=O)O; NMeCha = CN[C@@H](CC1CCCCC1)C(=O)O; NMeGly(cPr) = CN[C@H](C(=O)O)C1CC1; NMeD = CN[C@@H](CC(=O)O)C(=O)O; NMeL = CN[C@@H](CC(C)C)C(=O)O; hLeu = CC(C)CC[C@H](N)C(=O)O; NMeV = CN[C@H](C(=O)O)C(C)C; d(β3hA) = C[C@@H](N)CC(=O)O; NMeAbu = CC[C@H](NC)C(=O)O; NMeS = CN[C@@H](CO)C(=O)O; NMeA = CN[C@@H](C)C(=O)O; Nphe = O=C(O)CNCc1ccccc1; Piperidide = C1CCN(*)CC1; dNMeA = CN[C@H](C)C(=O)O; Ac5c = NC1(C(=O)O)CCCC1; Aze = O=C(O)[C@@H]1CCN1; Ac3c = NC1(C(=O)O)CC1; Cyclopropyl = C1CC1*; Sar = CNCC(=O)O Bounds are passed on as bounds.

Consider `CC[C@H](C)[C@@H]1NC(=O)[C@H](C)N(C)C(=O)C[C@@H](C(=O)N2CCCCC2)N(C)C(=O)[C@H](C(C)C)N(C)C(=O)C2(CCCC2)NC(=O)CN(Cc2ccccc2)C(=O)[C@H](CCc2ccc(C(F)(F)F)c(Cl)c2)NC(=O)CN(C)C(=O)[C@H](CC2CCCCC2)N(C)C(=O)CN(C)C(=O)CN(C)C1=O` [Compound 1676] ([NMeA]I[Sar][Sar][NMeCha][Sar][hPhe(3-Cl-4-CF3)][Nphe][Ac5c][NMeV][NMeD]-Piperidide; lactam N-11), for which the IC50 is 1.6 nM in experiment [1] and more than 500 nM in experiment [2].
The like results for `CC[C@H](C)[C@@H]1NC(=O)[C@H](CC(C)C)N(C)C(=O)C[C@@H](C(=O)N2CCCCC2)N(C)C(=O)[C@H](C(C)C)N(C)C(=O)C2(CCCC2)NC(=O)[C@@H]2CCCN2C(=O)[C@H](CCc2ccc(C(F)(F)F)c(Cl)c2)NC(=O)CN(C)C(=O)[C@H](C2CC2)N(C)C(=O)[C@@H]2CCN2C(=O)[C@H](C)N(C)C1=O` [Compound 1677] ([NMeL]I[NMeA][Aze][NMeGly(cPr)][Sar][hPhe(3-Cl-4-CF3)]P[Ac5c][NMeV][NMeD]-Piperidide; lactam N-11) were, in that order, 8.6 nM and more than 500 nM.
The like results for `CC[C@H](C)[C@@H]1NC(=O)[C@H](CC(C)C)N(C)C(=O)C[C@@H](C(=O)N2CCCCC2)N(C)C(=O)[C@H](CC)N(C)C(=O)C2(CCCC2)NC(=O)[C@@H]2CCCN2C(=O)[C@H](CCc2ccc(C(F)(F)F)c(Cl)c2)NC(=O)CN(C)C(=O)[C@H](CC2CCCCC2)N(C)C(=O)[C@@H]2CCN2C(=O)[C@H](C)N(C)C1=O` [Compound 1678] ([NMeL]I[NMeA][Aze][NMeCha][Sar][hPhe(3-Cl-4-CF3)]P[Ac5c][NMeAbu][NMeD]-Piperidide; lactam N-11) were, in that order, 26 nM and more than 500 nM.
The like results for `CC[C@H](C)[C@@H]1NC(=O)[C@H](CC(C)C)N(C)C(=O)C[C@@H](C(=O)N2CCCCC2)N(C)C(=O)[C@H](COC2CC2)N(C)C(=O)C2(CCCC2)NC(=O)[C@@H]2CCCN2C(=O)[C@H](CCc2ccc(C(F)(F)F)c(Cl)c2)NC(=O)CN(C)C(=O)[C@H](CC2CCCCC2)N(C)C(=O)[C@@H]2CCN2C(=O)[C@H](C)N(C)C1=O` [Compound 1690] ([NMeL]I[NMeA][Aze][NMeCha][Sar][hPhe(3-Cl-4-CF3)]P[Ac5c][NMeS](Cyclopropyl)[NMeD]-Piperidide; lactam N-11) were, in that order, 97 nM and more than 500 nM.
`CC[C@H](C)[C@@H]1NC(=O)[C@H](CC(C)C)N(C)C(=O)C[C@@H](C(=O)N2CCCCC2)N(C)C(=O)[C@H](C(C)C)N(C)C(=O)C2(CC2)NC(=O)[C@@H]2CCCN2C(=O)[C@H](CCc2ccc(C(F)(F)F)c(Cl)c2)NC(=O)CN(C)C(=O)[C@H](CC2CCCCC2)N(C)C(=O)[C@@H]2CCN2C(=O)[C@H](C)N(C)C1=O` [Compound 1695] ([NMeL]I[NMeA][Aze][NMeCha][Sar][hPhe(3-Cl-4-CF3)]P[Ac3c][NMeV][NMeD]-Piperidide; lactam N-11): the IC50 is 8 nM in experiment [1] and more than 500 nM in experiment [2].
The like results for `CC(C)CC[C@@H]1NC(=O)[C@H](CC(C)C)N(C)C(=O)C[C@@H](C(=O)N2CCCCC2)N(C)C(=O)[C@H](C(C)C)N(C)C(=O)C2(CCCC2)NC(=O)[C@@H]2CCCN2C(=O)[C@H](CCc2ccc(C(F)(F)F)c(Cl)c2)NC(=O)CN(C)C(=O)[C@H](CC2CCCCC2)N(C)C(=O)[C@@H]2CCN2C(=O)[C@H](C)N(C)C1=O` [Compound 1697] ([NMeL][hLeu][NMeA][Aze][NMeCha][Sar][hPhe(3-Cl-4-CF3)]P[Ac5c][NMeV][NMeD]-Piperidide; lactam N-11) were, in that order, 110 nM and more than 500 nM.
The like results for `CC[C@H](C)[C@@H]1NC(=O)[C@H](C)N(C)C(=O)C[C@@H](C)NC(=O)[C@H](C(C)C)N(C)C(=O)C2(CCCC2)NC(=O)[C@@H]2CCCN2C(=O)[C@H](CCc2ccc(C(F)(F)F)c(Cl)c2)NC(=O)[C@@H](C)N(C)C(=O)[C@H](Cc2ccc(F)cc2)N(C)C(=O)[C@@H]2CCN2C(=O)[C@H](C)N(C)C1=O` [Compound 1702] (cyclo([Ac5c][NMeV][d(β3hA)][NMeA]I[NMeA][Aze][NMePhe(4-F)][dNMeA][hPhe(3-Cl-4-CF3)]P)) were, in that order, 31 nM and more than 500 nM.
